Assay results published in ChEMBL document CHEMBL5126665, “A Dimerosesquiterpene and Sesquiterpene Lactones from Artemisia argyi Inhibiting Oncogenic PI3K/AKT Signaling in Melanoma Cells” (J Nat Prod, 2022).
The source made the active and inactive calls. The rule behind the calls is not given here.

Key:
Format in all cases: cell-based
[1] = Inhibition of PI3K/AKT signalling pathway in human MM121224 cells stably expressing H2B-mTurquoise, ERK-KTR-mScarlet and FoxO3a-KTR-mNeonGreen fluorophore assessed as AKT activity by high-content screening microscopic analysis
MM121224 [2] = assay: Inhibition of PI3K/AKT signalling pathway in human MM121224 cells stably expressing H2B-mTurquoise, ERK-KTR-mScarlet and FoxO3a-KTR-mNeonGreen fluorophore assessed as AKT activity at 25 uM by high-content screening microscopic analysis
[3] = Toxicity against human MM121224 cells at 50 to 200 uM by high-content screening microscopic analysis; conditions: mm121224, 200 µM, dose 50-200 µM
MM121224 [4] = assay: Inhibition of PI3K/AKT signalling pathway in human MM121224 cells assessed as downregulation of AKT phosphorylation at Ser473 residue by immunostaining based analysis

| IC50 [1] [µM] | SMILES | other results |
| --- | --- | --- |
| 14.2 | C=C1C(=O)O[C@H]2[C@H]1[C@@H](OC(=O)C(C)CC)CC(=C)[C@]1(O)C[C@H]3O[C@@]3(C)[C@H]21 (stereo partly specified) | – |
| 9.8 | C=C1C(=O)O[C@@H]2[C@H]3C(C)=CC(=O)C3=C(C)C[C@H](OC(=O)/C(C)=C\C)[C@@H]12 | – |
| 26.5 | C=C1C(=O)O[C@H]2[C@H]1CC[C@@](C)(O)[C@]13C=C[C@@](C)([C@H]21)[C@@]1(C3)C(=O)C[C@]2(C(C)C)C[C@@H]21 | – |
| 46.2 | C=C1C(=O)O[C@H]2[C@H]1[C@@H](OC(C)=O)CC(=C)[C@]1(O)C[C@H]3O[C@@]3(C)[C@H]21 | – |
| 27.7 | C=C1C(=O)O[C@@H]2[C@H]3C(C)=CC(=O)C3=C(C)C[C@H](OC(=O)C(C)CC)[C@@H]12 (stereo partly specified) | – |
| 8.9 | C=C1C(=O)O[C@@H]2[C@H]3C(C)=CC(=O)C3=C(C)C[C@H](OC(=O)C=C(C)C)[C@@H]12 | inhibition (MM121224 [2]): Active; Activity [3]: Toxic; inhibition (MM121224 [4]): Active |
| 15.3 | C=C1C(=O)O[C@@H]2[C@H]3C(C)=CC(=O)C3=C(C)C[C@H](OC(=O)CC(C)C)[C@@H]12 | – |
| 22.5 | C=C1C(=O)O[C@H]([C@@H]2C(=O)C=C[C@]2(C)O)[C@H]1CCC(C)=O [SECOTANAPARTHOLIDE B] | – |
| 38.4 | C=C1C(=O)O[C@H]2[C@H]1CC[C@@](C)(O)[C@@]13O[C@@H]1[C@@H]1O[C@]1(C)[C@H]23 | – |
| 11 | C=C1C(=O)O[C@@H]2[C@H]3C(C)=CC(=O)C3=C(C)C[C@H](OC(C)=O)[C@@H]12 | – |
| 22.1 | C=C(C(=O)OC)[C@@H]1CC[C@]2(C)C(=C(C)C(=O)C[C@H]2O)[C@H]1O | inhibition (MM121224 [4]): Active |
| 35.7 | C=C1C(=O)O[C@@H]2[C@@H]3[C@@]4(C=C[C@@]3(C)[C@]3(C4)C(=O)O[C@@H]4[C@H]5C(C)=CC(=O)C5=C(C)C[C@H](OC(C)=O)[C@H]43)[C@](C)(O)CC[C@@H]12 | inhibition (MM121224 [4]): Active |
| 24.6 | C=C1C(=O)O[C@H]2[C@H]1[C@@H](OC(=O)C(C)CC)C=C(C)[C@]1(O)C[C@@H](O)[C@@](C)(O)[C@H]21 (stereo partly specified) | – |
| 25.1 | C=C1C(=O)O[C@H](C2=C(C)[C@H](OC(C)=O)CC2=O)[C@H]1CCC(C)=O | inhibition (MM121224 [4]): Active |
| 23.6 | C=C1C(=O)O[C@@H]2[C@H]3C(C)=CC(=O)C3=C(C)CC[C@@H]12 [DEHYDROLEUCODIN] | – |
| 11.2 | C=C1C(=O)O[C@@H]2C3=C(C)C(=O)C[C@@H](O)[C@]3(C)CC[C@@H]12 | inhibition (MM121224 [4]): Active |
| 119 | C=C1C(=O)O[C@H]2[C@H]1CC[C@@](C)(O)[C@]13O[C@H]1[C@H]1O[C@@]1(C)[C@H]23 [ARTECANIN] | – |
| 25.9 | C=C1C(=O)O[C@H]2[C@H]1[C@@H](OC(C)=O)CC(C)=C1C[C@H]3O[C@@]3(C)[C@@H]12 | – |
| 22.9 | C=C1C(=O)O[C@H]2[C@H]1[C@@H](OC(C)=O)C=C(C)[C@]1(O)C[C@H]3O[C@@]3(C)[C@H]21 | – |
| 14.7 | C=C1C(=O)O[C@@H]2[C@@H]3[C@@]4(C=C[C@@]3(C)[C@@]3(C4)C(=O)O[C@@H]4[C@H]5C(C)=CC(=O)C5=C(C)C[C@H](OC(C)=O)[C@H]43)[C@](C)(O)CC[C@@H]12 | – |
| 16.9 | C=C1C(=O)O[C@H]2[C@H]1[C@@H](OC(=O)CC(C)C)CC(C)=C1C[C@H]3O[C@@]3(C)[C@@H]12 | – |
| 38 | C=C1C(=O)O[C@H]([C@H]2C(=O)C=C[C@@]2(C)O)[C@H]1CCC(C)=O | – |
| 27.9 | C=C1C(=O)O[C@H]2[C@H]1[C@@H](OC(=O)CC(C)C)C=C(C)[C@]1(O)C[C@@H](O)[C@@](C)(O)[C@H]21 | – |
| 27.7 | C=C1C(=O)O[C@H]2[C@H]1CC[C@@](C)(O)[C@@]13C=C[C@](C)([C@H]4[C@H](CC(=O)OC)[C@H](C/C=C\CC)C(=O)[C@H]41)[C@H]23 | inhibition (MM121224 [4]): Active |
| 52.7 | C=C1C(=O)O[C@@H]2[C@H]3C(C)=CC[C@@H](O)[C@]3(C)CC[C@@H]12 [SANTAMARIN] | – |
| 14.2 | C=C1C(=O)O[C@H]2[C@H]1[C@@H](OC(=O)CC(C)C)CC(=C)[C@]1(O)C[C@H]3O[C@@]3(C)[C@H]21 | – |

| SMILES | IC50 [1] [µM] | other results |
| --- | --- | --- |
| C=C1C(=O)O[C@@H]2[C@H]3C(C)=CC(=O)C3=C(C)C[C@H](O)[C@@H]12 | 15.1 | inhibition (MM121224 [4]): Active |
